System: 349418-098-R-PDC complex spheroid viability
Test: Anticancer human tumor 349418-098-R-PDC patient-derived lung adenocarcinoma cell line growth inhibition [RAS]
Details: for IC50: curve of first compound; for viability, T/C: stronger effect = lower value; active = viability on the fitted dose curve at most 10% of control; inactive = the rest
From the text: RAS pathway inhibitors in Combinations in Complex Spheroids
A high-throughput screen of multi-cell type tumor spheroids was designed to identify active combinations of RAS pathway inhibitors and targeted small molecules. Complex spheroids include a stromal component modeled by human endothelial cells (HUVEC) and fibroblasts modeled by human mesenchymal stem cells (MSCs). The concentration ranges selected for each drug and investigational agent were based upon clinically achievable concentrations if the clinical Cmax of the agent was known.
Compounds. The drugs and investigational agents: abemaciclib (NSC768073), cobimetinib (NSC768068), divarasib (GDC6063, NSC841802), docetaxel (NSC628503), GDC-1971 (RLY-1971, NSC841576), gemcitabine (NSC613327), inavolisib (NSC800729), ipatasertib (NSC767898), KB-0742 (NSC834161), MRTX-1133 (NSC836407), osimertinib (NSC779217), RMC-4630 (NSC839698), RMC-6236 (NSC851965), RMC-6291 (NSC852671), Ro-3306 (NSC812927), sapanisertib (NSC764658), SN-38 (NSC673596), staurosporine (NSC755774), SY5609 (NSC837396), and tovorafenib (DAY101, NSC766906), were obtained from the National Cancer Institute (NCI) Developmental Therapeutics Program Chemical Repository. The FDA-approved anticancer drug set is available from the NCI Developmental Therapeutics Program. […] The stock solutions were prepared in dimethyl sulfoxide (DMSO, Sigma-Aldrich, St. Louis, MO, cat. D2650) at 800-fold the tested concentration and stored at -70 degrees C prior to their use. All drugs and investigational agents were tested over a range starting from a high concentration at or near the clinical Cmax and decreasing in half-log increments. If the clinical Cmax for an agent had not been determined, the highest concentration tested was 10 microM.
Cell Culture. All cells were maintained in an incubator at 37 degrees C and 5% CO2 with 95% humidity. The PDC lines were cultured according to standard operating procedures established by the NCI PDMR. All PDCs were thawed and cultured in Matrigel-coated flasks prepared with a working solution of 1X Ham's F-12 nutrient mix, without supplementation (Invitrogen, Waltham, MA, cat. 11765054), 100 U/mL penicillin-streptomycin (Invitrogen, cat. 15140122), and 2.5% Matrigel (Corning Inc., Corning, NY, cat. 354248) for the first three passages. The 362531-283-R-J2-PDC and 782815-120-R-J1-PDC lines were cultured in 6C/Colon 1B media, which includes advanced DMEM/F-12 (Thermo Fisher Scientific, cat. 12634028), 10 mM HEPES (Thermo Fisher Scientific, cat. 15630080), 1X GlutaMAX supplement (Thermo Fisher Scientific, cat. 35050061), 0.1 mg/mL primocin (InvivoGen, San Diego, CA, cat. ant-pm-2), 10% defined fetal bovine serum, heat inactivated (HyClone Laboratories Inc., Logan, UT, cat. SH30070.03HI), 50% L-WRN conditioned media (ATCC, cat. CRL-3276), 1.25 mM N-Acetyl-L-cysteine (Sigma-Aldrich, cat. A9165), 10 mM nicotinamide (Sigma-Aldrich, cat. N0636), 1X B-27 supplement (Thermo Fisher Scientific, cat. 17504044), 1X N-2 supplement (Thermo Fisher Scientific, cat. 17502048), 50 ng/mL human EGF (Thermo Fisher Scientific, cat. PHG0311), and 10 microM Y-27632 dihydrochloride (Tocris Bioscience, cat. 1254). The K12877-001-R-J1-PDC line was cultured in 6I media, which includes all 6C/Colon 1B media plus 10 ng/mL human FGF-10 (PeproTech, cat. 100-26), 1 ng/mL human FGF-2 (PeproTech, cat. 100-18B), 1 µM prostaglandin E2 (Tocris Bioscience, cat. 2296), […] hydrocortisone (Sigma-Aldrich, cat. H4001), and […] bovine insulin (Sigma-Aldrich, cat. I6634). The K86415-001-R-J1-PDC line was cultured in 6D media, which includes all 6C/Colon 1B media components minus the L-WRN conditioned media. The 485176-168-R4-J1-PDC was cultured in PANC media, which includes all 6C/Colon 1B media plus 100 ng/mL human FGF-10 (PeproTech, cat. 100-26), 500 nM SB-431542 (Selleckchem, cat. S1067), and 10 nM gastrin (Tocris Bioscience, cat. 3006). […]
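Note: spheroids exposed to compound for seven days before viability readout.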

CC(C)NCC(C(=O)N1CCN(c2ncnc3c2C(C)CC3O)CC1)c1ccc(Cl)cc1 (configuration not stated) + C#Cc1c(F)ccc2cc(O)cc(-c3ncc4c(N5CC6CCC(C5)N6)nc(OCC56CCCN5CC(F)C6)nc4c3F)c12
inactive: viability, T/C (second compound 0.0316 µM, first compound 0.0316 µM) 84% | viability, T/C (second compound 0.0316 µM, first compound 0.1 µM) 59.1% | viability, T/C (second compound 0.0316 µM, first compound 0.316 µM) 60.1% | viability, T/C (second compound 0.0316 µM, first compound 1 µM) 29.7% | viability, T/C (second compound 0.0316 µM, first compound 3.16 µM) 25.2% | viability, T/C (second compound 0.1 µM, first compound 0.0316 µM) 62.7% | viability, T/C (second compound 0.1 µM, first compound 0.1 µM) 78.9% | viability, T/C (second compound 0.1 µM, first compound 0.316 µM) 68.8% | viability, T/C (second compound 0.1 µM, first compound 1 µM) 32.4% | viability, T/C (second compound 0.1 µM, first compound 3.16 µM) 20.9% | viability, T/C (second compound 0.1 µM, first compound 10 µM) 11.5% | viability, T/C (second compound 0.316 µM, first compound 0.0316 µM) 72.6% | viability, T/C (second compound 0.316 µM, first compound 0.1 µM) 46.6% | viability, T/C (second compound 0.316 µM, first compound 0.316 µM) 51.7% | viability, T/C (second compound 0.316 µM, first compound 1 µM) 31.1% | viability, T/C (second compound 0.316 µM, first compound 3.16 µM) 21.5% | viability, T/C (second compound 1 µM, first compound 0.0316 µM) 75% | viability, T/C (second compound 1 µM, first compound 0.1 µM) 54.8% | viability, T/C (second compound 1 µM, first compound 0.316 µM) 62.9% | viability, T/C (second compound 1 µM, first compound 1 µM) 28.8% | viability, T/C (second compound 1 µM, first compound 3.16 µM) 27.3% | viability, T/C (second compound 3.16 µM, first compound 0.0316 µM) 61.9% | viability, T/C (second compound 3.16 µM, first compound 0.1 µM) 75.1% | viability, T/C (second compound 3.16 µM, first compound 0.316 µM) 55.1% | viability, T/C (second compound 3.16 µM, first compound 1 µM) 39.2% | viability, T/C (second compound 3.16 µM, first compound 3.16 µM) 19.7% | viability, T/C (second compound 3.16 µM, first compound 10 µM) 10.7% | viability, T/C (second compound 10 µM, first compound 0.0316 µM) 60.7% | viability, T/C (second compound 10 µM, first compound 0.1 µM) 26.3% | viability, T/C (second compound 10 µM, first compound 0.316 µM) 28.1% | viability, T/C (second compound 10 µM, first compound 1 µM) 47.3% | viability, T/C (second compound 10 µM, first compound 3.16 µM) 16.9%
342 nM: IC50 (second compound 0.0316 µM)
active: viability, T/C (second compound 0.0316 µM, first compound 10 µM) 9.07% | viability, T/C (second compound 0.316 µM, first compound 10 µM) 8.74% | viability, T/C (second compound 1 µM, first compound 10 µM) 7.4% | viability, T/C (second compound 10 µM, first compound 10 µM) 3.22%
347 nM: IC50 (second compound 1 µM)
35 nM: IC50 (second compound 10 µM)
519 nM: IC50 (second compound 3.16 µM)
186 nM: IC50 (second compound 0.316 µM)
572 nM: IC50 (second compound 0.1 µM)
